Laboratory results taken from US11230540B2, “Substituted triazole derivatives and uses thereof” (Bayer Pharma Aktiengesellschaft, priority 2017, dated 2022).

How the values were obtained:
[1] = target: T1, human V1a receptor (Homo sapiens, UniProt P37288); test: Cellular in vitro assay for vasopressin receptor activity, V1a receptor cell line (aequorin luminescence); assay type: cell-based; details: for IC50: CHO cell line transfected with human V1a receptor, [Arg8]-vasopressin at EC50 concentration, read-out: IC50 hV1a; for ratio IC50 hV2/hV1a: selectivity ratio of the IC50 values hV2/hV1a
T1 construct: expressed in transfected cells; host or cells: CHO K1 (Chinese hamster ovary), also stably transfected with a modified aequorin
T1 sequence (P37288 whole entry): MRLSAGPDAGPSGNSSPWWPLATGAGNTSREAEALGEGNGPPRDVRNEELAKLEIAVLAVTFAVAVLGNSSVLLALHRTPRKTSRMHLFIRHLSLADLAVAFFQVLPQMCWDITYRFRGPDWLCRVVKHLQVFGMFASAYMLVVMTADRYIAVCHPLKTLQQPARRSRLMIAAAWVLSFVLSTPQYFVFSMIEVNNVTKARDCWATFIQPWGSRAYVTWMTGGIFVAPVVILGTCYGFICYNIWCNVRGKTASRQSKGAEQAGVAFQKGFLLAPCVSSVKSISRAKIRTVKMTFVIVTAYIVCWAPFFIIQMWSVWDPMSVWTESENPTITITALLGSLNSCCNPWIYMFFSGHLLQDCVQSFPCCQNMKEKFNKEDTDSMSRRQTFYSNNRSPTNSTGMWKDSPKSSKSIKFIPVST
Procedure: (§1) B-1. Cellular In Vitro Assay for Determining Vasopressin Receptor Activity
(§2) The identification of agonists and antagonists of the V1a and V2 vasopressin receptors from humans, rats and dogs as well as the quantification of the activity of the compounds of the invention is carried out using recombinant cell lines. These cell lines originally derive from a hamster's ovary epithelial cell (Chinese Hamster Ovary, CHO K1, ATCC: American Type Culture Collection, Manassas, Va. 20108, USA). The test cell lines constitutively express the human, rat or dog V1a or V2 receptors. In case of the […] V1a receptors, cells are also stably transfected with a modified form of the calcium-sensitive photoproteins aequorin (human and rat V1a) or obelin (dog V1a), which, after reconstitution with the cofactor coelenterazine, emit light when there are increases in free calcium concentrations [Rizzuto R, Simpson A W, Brini M, Pozzan T, Nature 358, 325-327 (1992); Illarionov B A, Bondar V S, Illarionova V A, Vysotski E S, Gene 153 (2), 273-274 (1995)]. The resulting vasopressin receptor cells react to stimulation of the recombinantly expressed V1a receptors by intracellular release of calcium ions, which can be quantified by the resulting photoprotein luminescence. The Gs-coupled V2 receptors are stably transfected into cell lines expressing the gene for firefly luciferase under control of a CRE-responsible promoter. Activation of V2 receptors induces the activation of the CRE-responsive promoter via cAMP increase, thereby inducing the expression of firefly luciferase. The light emitted by photoproteins of V1a cell lines as well as the light emitted by firefly luciferase of V2 cell lines corresponds to the activation or inhibition of the respective vasopressin receptor. The bioluminescence of the cell lines is detected using a suitable luminometer [Milligan G, Marshall F, Rees S, Trends in Pharmacological Sciences 17, 235-237 (1996)].
Vasopressin V1a Receptor Cell Lines:
On the day before the assay, the cells are plated out in culture medium (DMEM/F12, 2% FCS, 2 mM glutamine, 10 mM HEPES, 5 μg/ml coelenterazine) in 384-well microtiter plates and kept in a cell incubator (96% humidity, 5% v/v CO2, 37° C.). On the day of the assay, test compounds in various concentrations are placed for 10 minutes in the wells of the microtiter plate before the agonist [Arg^8]-vasopressin at EC50 concentration is added. The resulting light signal is measured immediately in a luminometer.
(§3) Table 1A below lists individual IC50 values for the compounds of the invention (including racemic mixtures as well as separated enantiomers) that were obtained from cell lines transfected with the human V1a or V2 receptor: […]

[2] = target: T2, human V2 receptor (Homo sapiens, UniProt P30518); test: Cellular in vitro assay for vasopressin receptor activity, V2 receptor cell line (CRE-luciferase); assay type: cell-based; details: CHO cell line transfected with human V2 receptor; [Arg8]-vasopressin at EC50 concentration; read-out: IC50 hV2
T2 construct: expressed in transfected cells; host or cells: CHO K1 (Chinese hamster ovary) expressing firefly luciferase under a CRE-responsive promoter
T2 sequence (P30518 whole entry): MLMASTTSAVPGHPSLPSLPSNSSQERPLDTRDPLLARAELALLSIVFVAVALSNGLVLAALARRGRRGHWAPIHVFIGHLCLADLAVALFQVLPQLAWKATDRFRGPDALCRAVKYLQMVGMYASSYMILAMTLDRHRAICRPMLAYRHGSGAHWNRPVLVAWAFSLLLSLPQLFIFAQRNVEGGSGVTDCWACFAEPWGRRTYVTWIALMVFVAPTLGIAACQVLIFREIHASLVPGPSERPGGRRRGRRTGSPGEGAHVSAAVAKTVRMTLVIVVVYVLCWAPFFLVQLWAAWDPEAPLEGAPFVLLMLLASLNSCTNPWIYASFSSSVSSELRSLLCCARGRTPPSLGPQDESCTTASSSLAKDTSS
Procedure: as §1, §2
Vasopressin V2 Receptor Cell Lines:
On the day before the assay, the cells are plated out in culture medium (DMEM/F12, 2% FCS, 2 mM glutamine, 10 mM HEPES) in 384-well microtiter plates and kept in a cell incubator (96% humidity, 5% v/v CO2, 37° C.). On the day of the assay, test compounds in various concentrations and the agonist [Arg^8]-vasopressin at EC50 concentration are added together to the wells, and plates are incubated for 3 hours in a cell incubator. Upon addition of the cell lysis reagent Triton™ and the substrate luciferin, luminescence of firefly luciferase is measured in a luminometer.
as §3

SMILES | IC50 [1] | ratio IC50 hV2/hV1a [1] | IC50 [2]
NNC(=O)c1nc(Cn2nc(-c3ccc(Cl)cc3)n(C[C@H](O)C(F)(F)F)c2=O)nn1-c1cnccc1Cl [Example 9, 3-({3-(4-Chlorophenyl)-5-oxo-4-[(2S)-3,3,3-trifluoro-2-hydroxypropyl]-4,5-dihydro-1H-1,2,4-triazol-1-yl}methyl)-1-(4-chloropyridin-3-yl)-1H-1,2,4-triazole-5-carbohydrazide] | 2.9 nM | 51.1 | 148 nM
O=C(c1nc(Cn2nc(-c3ccc(Cl)cc3)n(C[C@H](O)C(F)(F)F)c2=O)nn1-c1ccccc1Cl)N1CC(O)(C(F)(F)F)C1 [Example 12, 5-(4-Chlorophenyl)-2-{[1-(2-chlorophenyl)-5-{[3-hydroxy-3-(trifluoromethyl)azetidin-1-yl]carbonyl}-1H-1,2,4-triazol-3-yl]methyl}-4-[(2S)-3,3,3-trifluoro-2-hydroxypropyl]-2,4-dihydro-3H-1,2,4-triazol-3-one] | 1.19 nM | 18.7 | 22.2 nM
CC(C)(O)CNC(=O)c1nc(Cn2nc(-c3ccc(Cl)cc3)n(C[C@H](O)C(F)(F)F)c2=O)nn1-c1cccnc1Cl [Example 15, 3-({3-(4-Chlorophenyl)-5-oxo-4-[(2S)-3,3,3-trifluoro-2-hydroxypropyl]-4,5-dihydro-1H-1,2,4-triazol-1-yl}methyl)-1-(2-chloropyridin-3-yl)-N-(2-hydroxy-2-methylpropyl)-1H-1,2,4-triazole-5-carboxamide] | 13 nM | – | 183 nM
O=C(NCC(F)(F)F)c1nc(Cn2nc(-c3ccc(Cl)cc3)n(C[C@H](O)C(F)(F)F)c2=O)nn1-c1ncccc1Br [Example 16, 1-(3-Bromopyridin-2-yl)-3-({3-(4-chlorophenyl)-5-oxo-4-[(2S)-3,3,3-trifluoro-2-hydroxypropyl]-4,5-dihydro-1H-1,2,4-triazol-1-yl}methyl)-N-(2,2,2-trifluoroethyl)-1H-1,2,4-triazole-5-carboxamide] | 1.23 nM | 33.1 | 40.7 nM
O=C(NCC(F)(F)F)c1nc(Cn2nc(-c3ccc(Cl)cc3)n(C[C@H](O)C(F)(F)F)c2=O)nn1-c1cccnc1Cl [Example 18, 3-({3-(4-Chlorophenyl)-5-oxo-4-[(2S)-3,3,3-trifluoro-2-hydroxypropyl]-4,5-dihydro-1H-1,2,4-triazol-1-yl}methyl)-1-(2-chloropyridin-3-yl)-N-(2,2,2-trifluoroethyl)-1H-1,2,4-triazole-5-carboxamide] | 13.5 nM | 4.7 | 64 nM
COc1cccnc1-n1nc(Cn2nc(-c3ccc(Cl)cc3)n(C[C@H](O)C(F)(F)F)c2=O)nc1C(=O)NCC(C)(C)N [Example 20, N-(2-Amino-2-methylpropyl)-3-({3-(4-chlorophenyl)-5-oxo-4-[(2S)-3,3,3-trifluoro-2-hydroxypropyl]-4,5-dihydro-1H-1,2,4-triazol-1-yl}methyl)-1-(3-methoxypyridin-2-yl)-1H-1,2,4-triazole-5-carboxamide] | 6.95 nM | 14.9 | 104 nM
CC(C)(C)NC(=O)c1nc(Cn2nc(-c3ccc(Cl)cc3)n(C[C@H](O)C(F)(F)F)c2=O)nn1-c1ccccc1Cl [Example 28, N-tert-Butyl-1-(2-chlorophenyl)-3-({3-(4-chlorophenyl)-5-oxo-4-[(2S)-3,3,3-trifluoro-2-hydroxypropyl]-4,5-dihydro-1H-1,2,4-triazol-1-yl}methyl)-1H-1,2,4-triazole-5-carboxamide] | 2.95 nM | 8.8 | 26 nM

Continued by falling IC50 [1], values first:

IC50 [1] | ratio IC50 hV2/hV1a [1] | IC50 [2] | SMILES
75 nM | – | 730 nM | O=C(c1nc(Cn2nc(-c3ccc(Cl)cc3)n(C[C@H](O)C(F)(F)F)c2=O)nn1CCC(F)(F)F)N1CCOCC1 [Example 26, 5-(4-Chlorophenyl)-2-{[5-(morpholin-4-ylcarbonyl)-1-(3,3,3-trifluoropropyl)-1H-1,2,4-triazol-3-yl]methyl}-4-[(2S)-3,3,3-trifluoro-2-hydroxypropyl]-2,4-dihydro-3H-1,2,4-triazol-3-one]
9.1 nM | 180.2 | 1640 nM | NNC(=O)c1nc(Cn2nc(-c3ccc(Cl)cc3)n(C[C@H](O)C(F)(F)F)c2=O)nn1-c1ncccc1OC(F)(F)F [Example 11, 3-({3-(4-Chlorophenyl)-5-oxo-4-[(2S)-3,3,3-trifluoro-2-hydroxypropyl]-4,5-dihydro-1H-1,2,4-triazol-1-yl}methyl)-1-[3-(trifluoromethoxy)pyridin-2-yl]-1H-1,2,4-triazole-5-carbohydrazide]
6.05 nM | 3.7 | 22.5 nM | CNC(=O)c1nc(Cn2nc(-c3ccc(Cl)cc3)n(C[C@H](O)C(F)(F)F)c2=O)nn1-c1ncccc1OC [Example 21, 3-({3-(4-Chlorophenyl)-5-oxo-4-[(2S)-3,3,3-trifluoro-2-hydroxypropyl]-4,5-dihydro-1H-1,2,4-triazol-1-yl}methyl)-1-(3-methoxypyridin-2-yl)-N-methyl-1H-1,2,4-triazole-5-carboxamide]
4.15 nM | 25.5 | 106 nM | CC(C)(C)NC(=O)c1nc(Cn2nc(-c3ccc(Cl)cc3)n(C[C@H](O)C(F)(F)F)c2=O)nn1-c1ncccc1Cl [Example 27, N-tert-Butyl-3-({3-(4-chlorophenyl)-5-oxo-4-[(2S)-3,3,3-trifluoro-2-hydroxypropyl]-4,5-dihydro-1H-1,2,4-triazol-1-yl}methyl)-1-(3-chloropyridin-2-yl)-1H-1,2,4-triazole-5-carboxamide]
2.15 nM | 44.0 | 94.5 nM | NNC(=O)c1nc(Cn2nc(-c3ccc(Cl)cc3)n(C[C@H](O)C(F)(F)F)c2=O)nn1-c1ncccc1Cl [Example 10, 3-({3-(4-Chlorophenyl)-5-oxo-4-[(2S)-3,3,3-trifluoro-2-hydroxypropyl]-4,5-dihydro-1H-1,2,4-triazol-1-yl}methyl)-1-(3-chloropyridin-2-yl)-1H-1,2,4-triazole-5-carbohydrazide]
0.71 nM | 40.2 | 28.3 nM | O=C(NCC(F)(F)F)c1nc(Cn2nc(-c3ccc(Cl)cc3)n(C[C@H](O)C(F)(F)F)c2=O)nn1-c1ncccc1Cl [Example 17, 3-({3-(4-Chlorophenyl)-5-oxo-4-[(2S)-3,3,3-trifluoro-2-hydroxypropyl]-4,5-dihydro-1H-1,2,4-triazol-1-yl}methyl)-1-(3-chloropyridin-2-yl)-N-(2,2,2-trifluoroethyl)-1H-1,2,4-triazole-5-carboxamide]
0.47 nM | 45.7 | 21.5 nM | O=C(NCC(F)(F)F)c1nc(Cn2nc(-c3ccc(Cl)cc3)n(C[C@H](O)C(F)(F)F)c2=O)nn1-c1cnccc1Cl [Example 19, 3-({3-(4-Chlorophenyl)-5-oxo-4-[(2S)-3,3,3-trifluoro-2-hydroxypropyl]-4,5-dihydro-1H-1,2,4-triazol-1-yl}methyl)-1-(4-chloropyridin-3-yl)-N-(2,2,2-trifluoroethyl)-1H-1,2,4-triazole-5-carboxamide]
